In EP1382341A1, “Use of compositions comprising glycyrrhetinic acid and benzoyl peroxide for acne treatment” (Cognis Iberia, S.L., priority 2002, dated 2004):
≈ marks a conversion by molar mass, not a printed value. Like-named read-outs stand apart in the source and are kept apart here.

Legend:
Type in all cases: cell-based
[1] = test system: Propionibacterium acnes; assay: Agar diffusion method (inhibition zones); details: diameter of inhibition zone; Wilkins-Chalgren agar with 5 wt% sheep blood; 20 µl test substance; 18 to 24 at 37 °C, anaerobic
From the text: (§1) Die antibakterielle Wirksamkeit der Wirkstoffe und Wirkstoffinischungen wurde mit Hilfe der Diffusionsmethode auf Agar-Platten bzw. der Agar-Verdünnungsmethode untersucht. Dabei wird zunächst ein rundes Filterpapier definierten Durchmessers mit der Testlösung getränkt und dieses dann auf die Oberfläche einer Agarplatte aufgebracht, welche zuvor mit den Testmikroorganismen inokuliert worden war. Anschließend wird nach definierten Zeiten die Größe der Inhibierungszonen bestimmt. Diese Technik erlaubt es insbesondere die MIC (Minimum Inhibitory Concentration) als die niedrigste Testsubstanzkonzentration zu bestimmen, mit der noch eine vollständige Inhibierung der Mikroorganismen erzielt werden kann.
(§2) Agar-Diffusionsmethode. Das Inokulum wurde unter Verwendung einer frischen Kultur in einer stationären Wachstumsphase (nach ca. 18-24 h) in einer BHI-Lösung (Brain-Heart-InfüsionI) hergestellt. Die Bakteriensuspension wurde auf 0,5 MacFarland-Einheiten eingestellt, entsprechend 1,5 10^8 Kolonienbildende Einheiten (cfu)/ml; anschließend wurde die Suspension mit einer Kochsalzlösung 1/100 verdünnt, um einen Wert von 1,5 10^6 cfu/ml einzustellen. Anschließend wurde Mueller-Hinton Agar (Staphylococcus epidermis, Staphylococcus aureus) und Wilkins-Chalgrens Agar mit 5 Gew.-% Schafsblut (Propionobakterium acnes) 15 min bei 121 °C sterilisiert und dann in Petrischalen gegeben. Die Petrischalen wurden mit 2 bis 4 ml der Bakteriensuspensionen versetzt und bei Raumtemperatur getrocknet. Die Filterpapiere wurden mit 20 µl der Testsubstanzen getränkt und auf die Oberfläche der Agarplatten aufgebracht. Die inokulierten Petrischalen wurden 18 bis 24 bei 37 °C inkubiert (die Petrischalen mit Propionibacterium acnes unter anaeroben Bedingungen) und die antimikrobielle Wirksamkeit anschließend durch Bestimmung der Wachstumsinhibierungszone ermittelt. Die Ergebnisse sind in Tabelle 1 zusammengefasst. Angegeben sind ist jeweils der Durchmesser der Inhibierungsflächen in mm.

[2] = test system: Staphylococcus aureus; assay: Agar diffusion method (inhibition zones); details: diameter of inhibition zone; Mueller-Hinton agar; filter paper with 20 µl test substance; 18 to 24 at 37 °C
From the text: as §1, §2

[3] = test system: Staphylococcus epidermidis; assay: Agar diffusion method (inhibition zones); details: diameter of inhibition zone; Mueller-Hinton agar; filter paper with 20 µl test substance; 18 to 24 at 37 °C
From the text: as §1, §2

[4] = test system: Propionibacterium acnes; assay: Agar dilution method (MIC determination); details: lowest concentration with complete inhibition of growth, 37 °C, 18 to 24 h, mean of duplicate determinations
From the text: as §1
(§3) Agar Verdünnungsmethode (MIC-Bestimmung). Wie oben beschrieben wurden verschiedene Agars vorbereitet, mit unterschiedlichen Konzentrationen an Testsubstanzen versetzt, homogenisiert und dann getrocknet. Anschließend erfolgte die Inokulation der Petrischalen mit jeweils 2 µl der Bakteriensuspensionen. […] Es handelt sich jeweils um den Mittelwert von Doppelbestimmungen.

[5] = test system: Staphylococcus aureus; assay: Agar dilution method (MIC determination); details: lowest concentration with complete inhibition of growth, 37 °C, 18 to 24 h, mean of duplicate determinations
From the text: as §1, §3

[6] = test system: Staphylococcus epidermidis; assay: Agar dilution method (MIC determination); details: lowest concentration with complete inhibition of growth, 37 °C, 18 to 24 h, mean of duplicate determinations
From the text: as §1, §3

Molecule | Inhibierungszonen [1] | Inhibierungszonen [2] | Inhibierungszonen [3] | MIC ([4]; Cutibacterium acnes, read-out: MIC) | MIC ([5]; Staphylococcus aureus, read-out: MIC) | MIC ([6]; Staphylococcus epidermidis, read-out: MIC) | MIC [4] | MIC [5] | MIC [6]
O=C(OOC(=O)c1ccccc1)c1ccccc1 [A1, Benzoylperoxid] | 7 mm | 5 mm | 5 mm | 1250 µg/mL (≈ 5.16 mM) | > 10000 µg/mL | 1250 µg/mL (≈ 5.16 mM) | – | – | –
Glyzyrrhetinsäure-Zinksalz [B1] | 4 mm | 5 mm | 5 mm | – | – | – | 1,25 mg/ml | >10000 µg/mL | 1,25 mg/ml
